US12178210B2, “Insect attractant and killing system” (priority 2020, dated 2024)
Like-named read-outs stand apart in the source and are kept apart here.

Tests used:
[1] = field, Valencia
Experimental: Every two weeks samples of the attractant were weighed to determine the mass. From the mass, the mass that had been released, the mass remaining, and the amount of ammonia released was determined.

[2] = for Attractant Release Rate (5-day average per time point): 15 g
Text: All prototype lure devices (i.e., the attractant receptacle and permeable membrane with enclosed volatile insect attractant) were constructed using polypropylene/calcium carbonate film (UV8) for the permeable membrane and Scotchpak™ (3M) polyester laminate film for the impermeable barrier material. Each lure device measured approximately 11.5 cm×5.5 cm with a 1.6 mm ( 1/16 in) diameter spherical punch in the impermeable layer exposing the membrane and an ˜8 mm ( 5/16 in) diameter heat seal around the circumference of the punch (referred to as a ring seal). […] Prior to being deployed the lures were weighed on an analytical balance (Sartorius, Universal; resolution of 0.01 g). Prototype lures were attached to a cord that ran the length of ventilated laboratory fume hood, with 5-8 cm (2-3 in) separating each lure in an open, ventilated room at the indicated temperature (18-20° C. or 39-41° C.). Every 2-3 days the lures were removed from the cord and weighed on the same scale. Lure weight was recorded and the weight loss (g/day) was calculated. In addition to prototype lures, two controls were included in the study consisting of a current Suterra lure product (WHF lure) and a competitor product (Comp. Prod. 1).

## N.N.O=C(O)O [Ammonium Carbonate, ammonium carbonate]
[1]; week 0, ave. temp. 25.10 ° C
  Avg. Mass Loss: 0.00 g
  Avg. Mass Remaining: 14.94 g
  Avg. Release Rate: 0.000 g/day
[1]; week 2, ave. temp. 26.30 ° C
  Avg. Mass Loss: 0.48 g
  Avg. Mass Remaining: 14.46 g
  Avg. Release Rate: 0.035 g/day
[1]; week 4, ave. temp. 26.90 ° C
  Avg. Mass Loss: 1.57 g
  Avg. Mass Remaining: 13.37 g
  Avg. Release Rate: 0.078 g/day
[1]; week 6, ave. temp. 27.10 ° C
  Avg. Mass Loss: 2.73 g
  Avg. Mass Remaining: 12.21 g
  Avg. Release Rate: 0.083 g/day
[1]; week 8, ave. temp. 24.40 ° C
  Avg. Mass Loss: 3.77 g
  Avg. Mass Remaining: 11.17 g
  Avg. Release Rate: 0.074 g/day
[1]; week 10, ave. temp. 22.60 ° C
  Avg. Mass Loss: 4.09 g
  Avg. Mass Remaining: 10.85 g
  Avg. Release Rate: 0.023 g/day
[1]; week 12, ave. temp. 21.50 ° C
  Avg. Mass Loss: 4.66 g
  Avg. Mass Remaining: 10.28 g
  Avg. Release Rate: 0.041 g/day
[1]; week 14, ave. temp. 19.90 ° C
  Avg. Mass Loss: 4.93 g
  Avg. Mass Remaining: 10.01 g
  Avg. Release Rate: 0.019 g/day
[1]; week 16, ave. temp. 17.70 ° C
  Avg. Mass Loss: 5.11 g
  Avg. Mass Remaining: 9.83 g
  Avg. Release Rate: 0.013 g/day
[1]; week 18, ave. temp. 15.30 ° C
  Avg. Mass Loss: 5.30 g
  Avg. Mass Remaining: 9.64 g
  Avg. Release Rate: 0.013 g/day
[1]; week 20, ave. temp. 14.40 ° C
  Avg. Mass Loss: 5.59 g
  Avg. Mass Remaining: 9.35 g
  Avg. Release Rate: 0.021 g/day
[1]; week 24, ave. temp. 11.70 ° C
  Avg. Mass Loss: 5.86 g
  Avg. Mass Remaining: 9.08 g
  Avg. Release Rate: 0.009 g/day
[1]; week 28, ave. temp. […] C
  Avg. Mass Loss: 6.20 g
  Avg. Mass Remaining: 8.74 g
  Avg. Release Rate: 0.012 g/day
[1]; week 31, ave. temp. […] C
  Avg. Mass Loss: 6.80 g
  Avg. Mass Remaining: 8.14 g
  Avg. Release Rate: 0.028 g/day
[1]; week 35, ave. temp. 12.60 ° C
  Avg. Mass Loss: 7.29 g
  Avg. Mass Remaining: 7.65 g
  Avg. Release Rate: 0.018 g/day
[1]; week 38, ave. temp. 13.50 ° C
  Avg. Mass Loss: 7.56 g
  Avg. Mass Remaining: 7.38 g
  Avg. Release Rate: 0.013 g/day
[1]; week 39, ave. temp. 13.30 ° C
  Avg. Mass Loss: 7.80 g
  Avg. Mass Remaining: 7.14 g
  Avg. Release Rate: 0.033 g/day
[1]; week 41, ave. temp. 15.80 ° C
  Avg. Mass Loss: 8.12 g
  Avg. Mass Remaining: 6.82 g
  Avg. Release Rate: 0.023 g/day
[1]; week 43, ave. temp. 16.50 ° C
  Avg. Mass Loss: 8.44 g
  Avg. Mass Remaining: 6.50 g
  Avg. Release Rate: 0.023 g/day
[1]; week 46, ave. temp. 18.10 ° C
  Avg. Mass Loss: 9.17 g
  Avg. Mass Remaining: 5.77 g
  Avg. Release Rate: 0.035 g/day
[1]; week 47, ave. temp. 20.40 ° C
  Avg. Mass Loss: 9.48 g
  Avg. Mass Remaining: 5.46 g
  Avg. Release Rate: 0.044 g/day
[2]; 40° C., 16 hours, UV8 membrane, 1.6 mm orifice
  Release Rate: 0.39 g/day
[2]; 40° C., 16 hours, second, unexplained block of rows
  Release Rate: 0.02 g/day
[2]; 40° C., 24 hours, UV8 membrane, 1.6 mm orifice
  Release Rate: 0.37 g/day
[2]; 40° C., 24 hours, second, unexplained block of rows
  Release Rate: 0.03 g/day
[2]; 40° C., 51 hours, UV8 membrane, 1.6 mm orifice
  Release Rate: 0.36 g/day
[2]; 40° C., 51 hours, second, unexplained block of rows
  Release Rate: 0.05 g/day
[2]; 40° C., 88 hours, UV8 membrane, 1.6 mm orifice
  Release Rate: 0.36 g/day
[2]; 40° C., 88 hours, second, unexplained block of rows
  Release Rate: 0.09 g/day
[2]; 40° C., 96 hours, UV8 membrane, 1.6 mm orifice
  Release Rate: 0.36 g/day
[2]; 40° C., 96 hours, second, unexplained block of rows
  Release Rate: 0.09 g/day
[2]; 40° C., 112 hours, UV8 membrane, 1.6 mm orifice
  Release Rate: 0.36 g/day
[2]; 40° C., 112 hours, second, unexplained block of rows
  Release Rate: 0.10 g/day
[2]; 40° C., 120 hours, UV8 membrane, 1.6 mm orifice
  Release Rate: 0.36 g/day
[2]; 40° C., 120 hours, second, unexplained block of rows
  Release Rate: 0.11 g/day
[2]; 40° C., 144 hours, UV8 membrane, 1.6 mm orifice
  Release Rate: 0.36 g/day
[2]; 40° C., 144 hours, second, unexplained block of rows
  Release Rate: 0.13 g/day
[2]; 40° C., 168 hours, UV8 membrane, 1.6 mm orifice
  Release Rate: 0.35 g/day
[2]; 40° C., 168 hours, second, unexplained block of rows
  Release Rate: 0.15 g/day
[2]; 40° C., day 5, UV8 membrane, 1.6 mm orifice
  Attractant Release Rate (5-day average per time point): 391.6 mg/day
[2]; 40° C., day 10, UV8 membrane, 1.6 mm orifice
  Attractant Release Rate (5-day average per time point): 402.8 mg/day
[2]; 40° C., day 15, UV8 membrane, 1.6 mm orifice
  Attractant Release Rate (5-day average per time point): 396.5 mg/day
[2]; 40° C., day 20, UV8 membrane, 1.6 mm orifice
  Attractant Release Rate (5-day average per time point): 316.7 mg/day
[2]; 40° C., day 25, UV8 membrane, 1.6 mm orifice
  Attractant Release Rate (5-day average per time point): 198.0 mg/day
[2]; 40° C., day 30, UV8 membrane, 1.6 mm orifice
  Attractant Release Rate (5-day average per time point): 156.0 mg/day
[2]; 40° C., day 35, UV8 membrane, 1.6 mm orifice
  Attractant Release Rate (5-day average per time point): 112.0 mg/day
[2]; 40° C., day 40, UV8 membrane, 1.6 mm orifice
  Attractant Release Rate (5-day average per time point): 108.4 mg/day
[2]; 40° C., day 45, UV8 membrane, 1.6 mm orifice
  Attractant Release Rate (5-day average per time point): 100.4 mg/day
[2]; 40° C., day 49, UV8 membrane, 1.6 mm orifice
  Attractant Release Rate (5-day average per time point): 98.0 mg/day
[2]; 40° C., day 55, UV8 membrane, 1.6 mm orifice
  Attractant Release Rate (5-day average per time point): 87.7 mg/day
[2]; Ambient Temperature, day 5, UV8 membrane, 1.6 mm orifice
  Attractant Release Rate (5-day average per time point): 97 mg/day
[2]; Ambient Temperature, day 10, UV8 membrane, 1.6 mm orifice
  Attractant Release Rate (5-day average per time point): 99.5 mg/day
[2]; Ambient Temperature, day 15, UV8 membrane, 1.6 mm orifice
  Attractant Release Rate (5-day average per time point): 101.9 mg/day
[2]; Ambient Temperature, day 20, UV8 membrane, 1.6 mm orifice
  Attractant Release Rate (5-day average per time point): 104.2 mg/day
[2]; Ambient Temperature, day 25, UV8 membrane, 1.6 mm orifice
  Attractant Release Rate (5-day average per time point): 100.5 mg/day
[2]; Ambient Temperature, day 30, UV8 membrane, 1.6 mm orifice
  Attractant Release Rate (5-day average per time point): 101.3 mg/day
[2]; Ambient Temperature, day 35, UV8 membrane, 1.6 mm orifice
  Attractant Release Rate (5-day average per time point): 100.0 mg/day
[2]; Ambient Temperature, day 40, UV8 membrane, 1.6 mm orifice
  Attractant Release Rate (5-day average per time point): 86.0 mg/day
[2]; Ambient Temperature, day 45, UV8 membrane, 1.6 mm orifice
  Attractant Release Rate (5-day average per time point): 86.5 mg/day
[2]; Ambient Temperature, day 49, UV8 membrane, 1.6 mm orifice
  Attractant Release Rate (5-day average per time point): 84.4 mg/day
[2]; Ambient Temperature, day 55, UV8 membrane, 1.6 mm orifice
  Attractant Release Rate (5-day average per time point): 83.8 mg/day
[2]; Ambient, 16 hours, UV8 membrane, 1.6 mm orifice
  Release Rate: 0.12 g/day
[2]; Ambient, 16 hours, second, unexplained block of rows
  Release Rate: 0.01 g/day
[2]; Ambient, 24 hours, UV8 membrane, 1.6 mm orifice
  Release Rate: 0.12 g/day
[2]; Ambient, 24 hours, second, unexplained block of rows
  Release Rate: 0.01 g/day
[2]; Ambient, 51 hours, UV8 membrane, 1.6 mm orifice
  Release Rate: 0.12 g/day
[2]; Ambient, 51 hours, second, unexplained block of rows
  Release Rate: 0.04 g/day
[2]; Ambient, 88 hours, UV8 membrane, 1.6 mm orifice
  Release Rate: 0.11 g/day
[2]; Ambient, 88 hours, second, unexplained block of rows
  Release Rate: 0.06 g/day
[2]; Ambient, 96 hours, UV8 membrane, 1.6 mm orifice
  Release Rate: 0.12 g/day
[2]; Ambient, 96 hours, second, unexplained block of rows
  Release Rate: 0.07 g/day
[2]; Ambient, 112 hours, UV8 membrane, 1.6 mm orifice
  Release Rate: 0.11 g/day
[2]; Ambient, 112 hours, second, unexplained block of rows
  Release Rate: 0.08 g/day
[2]; Ambient, 120 hours, UV8 membrane, 1.6 mm orifice
  Release Rate: 0.12 g/day
[2]; Ambient, 120 hours, second, unexplained block of rows
  Release Rate: 0.08 g/day
[2]; Ambient, 144 hours, UV8 membrane, 1.6 mm orifice
  Release Rate: 0.11 g/day
[2]; Ambient, 144 hours, second, unexplained block of rows
  Release Rate: 0.08 g/day
[2]; Ambient, 168 hours, UV8 membrane, 1.6 mm orifice
  Release Rate: 0.11 g/day
[2]; Ambient, 168 hours, second, unexplained block of rows
  Release Rate: 0.11 g/day
